Reference: patent publication EP0067666A1, “Salts of antimicrobial naphthyridine and quinoline compounds and their production” (priority 1981, dated 1982)
In brackets after ≈: the same amount, converted by molar mass. Marks after values point to notes of the source that are not given here.

Key:
Assay type in all cases: physicochemical
[1] = 10x dilution of soluble forms with standard IV solutions (pH, precipitate); conditions: for Solution 1 ppt 24 hr / Solution 3 ppt 24 hr / Solution 2 ppt 24 hr / Solution 4 ppt 24 hr: precipitate at 24 hr; for Concen. of Cpd A: undiluted solution used for the 10x dilutions
Protocol: (§1) The amount of Compound A or Compound B calculated for selected concentrations was weighed into volumetric flasks. Equimolar quantities of combining acid, amino acid, or base were added either as solutions or in dry form. Deionized water was added to bring the volume to that desired for the preselected concentrations.. All flasks were sonicated for 15 minutes, allowed to stand at room temperature for 30 minutes, then filtered through a fine frit sintered glass funnel. After the pH of the filtrate was taken, suitable dilutions were made into 0.1N HCl for ultraviolet spectrophotometric assay of concentration. Ten fold dilutions of the original filtrates were made into standard I.V. solutions.

[2] = Solubility screening procedure (concentration and pH of filtrate); conditions: for Conc. of CPD A: compound A + equimolar acid; for Conc. of CPD A / Conc. of CPD B: amino acid or base in deionized water, room temperature, filtrate, UV assay; for pH of Solution: pH of the filtrate; for Conc. of CPD B: compound B + equimolar acid
Protocol: as §1

[3] = Solubility of lyophilized and crystalline solids; conditions: for pH of Solution Lyo. / Conc. of CPD A mg/ml Lyo.: lyophilized solid
[4] = Cpd A salt solution diluted 10x with 0.9% NaCl
[5] = Cpd A salt solution diluted 10x with 5% Dextrose
[6] = Cpd A salt solution diluted 10x with 5% Dextrose + 0.9% NaCl
[7] = Cpd A salt solution diluted 10x with Lactated Ringer's Solution
[8] = concentrated Cpd B solution (154-221 mg/ml) diluted 10x with 5% Dextrose
[9] = concentrated Cpd B solution (154-221 mg/ml) diluted 10x with 5% Dextrose + 0.9% NaCl
[10] = concentrated Cpd B solution (154-221 mg/ml) diluted 10x with Lactated Ringer's Solution
[11] = concentrated Cpd B solution (155-221 mg/ml) diluted 10x with 0.9% NaCl
[12] = concentrated Cpd B solution (155-221 mg/ml) diluted 10x with 0.9% NaCl, precipitate at 4 hr
[13] = concentrated Cpd B solution diluted 10x with 5% Dextrose + 0.9% NaCl
[14] = concentrated Cpd B solution diluted 10x with 5% Dextrose
[15] = concentrated Cpd B solution diluted 10x with Lactated Ringer's Solution
[16] = low-concentration Cpd B solution (26.2-52 mg/ml) diluted 10x with 0.9% NaCl
[17] = separate undiluted concentrated Cpd B solution used for Solutions 2-4 only
[18] = separate undiluted concentrated solution used for Solutions 2-4 only
[19] = undiluted concentrated Cpd B solution used for the Solution 1 dilution
[20] = undiluted concentrated solution (at least 155 mg/ml) used for the Solution 1 dilution (for most salts for all four solutions)
[21] = undiluted low-concentration Cpd B solution (26.2-52 mg/ml)
[22] = undiluted low-concentration solution (26.2-52 mg/ml), diluted with Solution 1 only

CCn1cc(C(=O)O)c(=O)c2cc(F)c(N3CCNCC3)cc21 [A Methane Sulphonic]
Solution 1 pH dil [1, 4]: 5.4 | Solution 1 ppt 24 hr [1, 4]: no | Solution 2 pH dil [1, 5]: 2.7 | Solution 3 pH dil [1, 6]: 2.5 | Solution 3 ppt 24 hr [1, 6]: no | Solution 2 ppt 24 hr [1, 5]: no | Solution 4 pH dil [1, 7]: 4.5 | Solution 4 ppt 24 hr [1, 7]: no | pH of Solut. ([1]; undiluted Cpd A solution): 1.5 | Concen. of Cpd A [1]: 173000 µg/mL | Conc. of CPD A [2]: 175000 µg/mL | pH of Solution ([2]; CPD A solutions): 1.33

CCn1cc(C(=O)O)c(=O)c2cc(F)c(N3CCNCC3)cc21 [A Acetic]
Solution 1 pH dil [1, 4]: 5.4 | Solution 1 ppt 24 hr [1, 4]: no | Solution 2 pH dil [1, 5]: 5.0 | Solution 3 pH dil [1, 6]: 5.3 | Solution 3 ppt 24 hr [1, 6]: no | Solution 2 ppt 24 hr [1, 5]: no | Solution 4 pH dil [1, 7]: 5.3 | Solution 4 ppt 24 hr [1, 7]: no | pH of Solut. ([1]; undiluted Cpd A solution): 5.3 | Concen. of Cpd A [1]: 235000 µg/mL | Conc. of CPD A [2]: 235000 µg/mL | pH of Solution ([2]; CPD A solutions): 5.3

CCn1cc(C(=O)O)c(=O)c2cc(F)c(N3CCNCC3)nc21 [B L-Glutamic]
Solution 2 pH dil [1, 8]: 5.06 | Solution 3 pH dil [1, 9]: 4.95 | Solution 4 pH dil [1, 10]: 5.09 | Solution 1 pH dil [1, 11]: 5.10 | Solution 1 ppt 4 hr [1, 12]: no | Solution 1 ppt 24 hr [1, 11]: yes | Solution 3 ppt 24 hr [1, 13]: slight | Solution 2 ppt 4 hr ([1]; concentrated Cpd B solution diluted 10x with 5% Dextrose, precipitate at 4 hr): slight | Solution 2 ppt 24 hr [1, 14]: slight | Solution 4 ppt 24 hr [1, 15]: slight | Solution 1 pH dil [1, 16]: 4.99 | Solution 1 ppt 24 hr [1, 16]: no | pH of Solut. [1, 17]: 5.20 | Concen. of Cpd B [1, 18]: 154000 µg/mL | pH of Solut. [1, 19]: 4.98 | Concen. of Cpd B [1, 20]: 160000 µg/mL | pH of Solut. [1, 21]: 4.95 | Concen. of Cpd B [1, 22]: 48200 µg/mL | pH of Solution Cryst. ([3]; CPD B salt, crystalline solid): 4.84 | pH of Solution Lyo. ([3]; CPD B salt): 4.8 | Conc. of CPD B [2]: 160000 µg/mL | pH of Solution ([2]; CPD B solutions): 4.98

CCn1cc(C(=O)O)c(=O)c2cc(F)c(N3CCNCC3)cc21 [A D-Galacturonic]
Solution 1 pH dil [1, 4]: 5.36 | Solution 1 ppt 24 hr [1, 4]: no | Solution 2 pH dil [1, 5]: 5.18 | Solution 3 pH dil [1, 6]: 5.20 | Solution 3 ppt 24 hr [1, 6]: no | Solution 2 ppt 24 hr [1, 5]: slight | Solution 4 pH dil [1, 7]: 5.36 | Solution 4 ppt 24 hr [1, 7]: no | pH of Solut. ([1]; undiluted Cpd A solution): 5.44 | Concen. of Cpd A [1]: 166000 µg/mL | pH of Solution Cryst. ([3]; CPD A salt, crystalline solid): 4.9 | pH of Solution Lyo. ([3]; CPD A salt): 4.0 | solubility ([3]; crystalline solid, not necessarily maximum value, read-out: Conc. of CPD A mg/ml Cryst.): 183 mg/mL (≈ 573 mM) | Conc. of CPD A mg/ml Lyo. ([3]; not necessarily maximum value): 256 mg/mL

CCn1cc(C(=O)O)c(=O)c2cc(F)c(N3CCNCC3)cc21 [A Hydrochloric]
Solution 1 pH dil [1, 4]: 2.7 | Solution 1 ppt 24 hr [1, 4]: no | Solution 2 pH dil [1, 5]: 2.8 | Solution 3 pH dil [1, 6]: 2.7 | Solution 3 ppt 24 hr [1, 6]: no | Solution 2 ppt 24 hr [1, 5]: no | Solution 4 pH dil [1, 7]: 4.6 | Solution 4 ppt 24 hr [1, 7]: no | pH of Solut. ([1]; undiluted Cpd A solution): 1.52 | Concen. of Cpd A [1]: 201000 µg/mL | Conc. of CPD A [2]: 201000 µg/mL | pH of Solution ([2]; CPD A solutions): 1.52^a

CCn1cc(C(=O)O)c(=O)c2cc(F)c(N3CCNCC3)cc21 [A L-Glutamic]
Solution 1 pH dil [1, 4]: 5.18 | Solution 1 ppt 24 hr [1, 4]: no | Solution 2 pH dil [1, 5]: 5.05 | Solution 3 pH dil [1, 6]: 5.05 | Solution 3 ppt 24 hr [1, 6]: no | Solution 2 ppt 24 hr [1, 5]: no | Solution 4 pH dil [1, 7]: 5.15 | Solution 4 ppt 24 hr [1, 7]: no | pH of Solut. ([1]; undiluted Cpd A solution): 5.08 | Concen. of Cpd A [1]: 174000 µg/mL | pH of Solution Cryst. ([3]; CPD A salt, crystalline solid): 5.5 | pH of Solution Lyo. ([3]; CPD A salt): 5.2 | Conc. of CPD A mg/ml Lyo. ([3]; not necessarily maximum value): 254 mg/mL | Conc. of CPD A [2]: 174000 µg/mL | pH of Solution ([2]; CPD A solutions): 5.08

CCn1cc(C(=O)O)c(=O)c2cc(F)c(N3CCNCC3)nc21 [B L-Aspartic]
Solution 2 pH dil [1, 8]: 4.83 | Solution 3 pH dil [1, 9]: 4.71 | Solution 4 pH dil [1, 10]: 4.94 | Solution 1 pH dil [1, 11]: 4.82 | Solution 1 ppt 4 hr [1, 12]: no | Solution 1 ppt 24 hr [1, 11]: yes | Solution 3 ppt 24 hr [1, 13]: yes | Solution 2 ppt 24 hr [1, 14]: no | Solution 4 ppt 24 hr [1, 15]: no | Solution 1 pH dil [1, 16]: 5.54 | Solution 1 ppt 24 hr [1, 16]: no | pH of Solut. [1, 17]: 4.60 | Concen. of Cpd B [1, 18]: 190000 µg/mL | pH of Solut. [1, 19]: 4.64 | Concen. of Cpd B [1, 20]: 165000 µg/mL | pH of Solut. [1, 21]: 4.48 | Concen. of Cpd B [1, 22]: 49800 µg/mL | pH of Solution Cryst. ([3]; CPD B salt, crystalline solid): 4.80 | pH of Solution Lyo. ([3]; CPD B salt): 4.65 | Conc. of CPD B [2]: 165000 µg/mL | pH of Solution ([2]; CPD B solutions): 4.64
